Where “and” joins values, the source holds several entries; their conditions need not be identical. Equal entries are not always repeated. Calls of active or inactive are those of the source.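 Rule for the calls: active = fitted curve drops past -35% activity change at a concentration no higher than twice the top valid tested dose; inconclusive = no clear call, values can overlap the other calls; inactive = the rest, including activity opposite to the expected direction.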
test system: A549 viability, CellTiter-Glo ATP luminescence, 72 h; experiment: A549 cell cytotoxicity, dose response, cytotoxicity control, luminescence, dry powder, set 12 (AID 743472); details: not given

SMILES	AC35
COc1cccc2c1C(=O)c1c(O)c3c(c(O)c1C2=O)C[C@@](O)(C(=O)CO)C[C@@H]3O[C@H]1C[C@H](N)[C@H](O)[C@H](C)O1	0.333 µM
Cc1c([C@H](C(Cl)Cl)[C@H](O)[C@H]2C[C@H](C)C(=O)O2)ccc2c1C(=O)[C@H]1[C@H]2C[C@@H](Br)[C@@]23O[C@@H](CO[C@H]2O)C[C@]13C	3.44 µM
COc1ccccc1S(=O)(=O)N1CC[C@@H]2[C@@H](CO)Nc3ccc(-c4ccc(C#N)cc4)cc3[C@@H]21	22.6 µM
COc1ccccc1-c1nnc2n1N=C(c1ccc3c(c1)OCO3)CS2	0.102 µM
Clc1ccccc1-c1nnc2n1N=C(c1ccc3c(c1)OCO3)CS2	0.945 µM
N#CC1=C(N)Oc2cc3c(cc2C1c1cccc(Br)c1)OCO3 (stereo not drawn)	0.0624 µM
N#Cc1ccc(-c2ccc3c(c2)[C@H]2[C@H](CCN2S(=O)(=O)c2cccc(F)c2)[C@@H](CO)N3)cc1	21.4 µM
COc1ccc(C2=Nn3c(nnc3-c3ccccc3OC)SC2)cc1OC	0.205 µM
Cc1nc(Nc2ncc(C(=O)Nc3c(C)cccc3Cl)s2)cc(N2CCN(CCO)CC2)n1	12.2 µM
CN(C)c1ccc2c(c1)OC(N)=C(C#N)C2c1cccc(F)c1 (stereo not drawn)	0.0738 µM
N#CC1=C(N)Oc2cc(N)ccc2C1c1cccc(Br)c1 (stereo not drawn)	0.488 µM
N#CC1=C(N)Oc2cc(N)ccc2C1c1cccc(F)c1 (stereo not drawn)	10.8 µM
COc1cccc(S(=O)(=O)N2CC[C@@H]3[C@@H](CO)Nc4ccc(-c5ccc(C#N)cc5)cc4[C@@H]32)c1	26.4 µM
CC(C)N1c2ccccc2C(c2ccc(F)cc2)C1/C=C/C(O)CC(O)CC(=O)O (stereo not drawn)	23.9 µM
C[C@@]1(C(=O)Nc2ccc(F)nc2)CCCN1c1nc(Nc2cc(C3CC3)[nH]n2)c2cccn2n1	3.48 µM
CCc1c2c(nc3ccc(O)cc13)-c1cc3c(c(=O)n1C2)COC(=O)C3(O)CC (stereo not drawn)	0.579 µM
N#Cc1ccc(-c2ccc3c(c2)[C@H]2[C@H](CCN2S(=O)(=O)c2ccccc2F)[C@@H](CO)N3)cc1	17 µM
N#CC1=C(N)Oc2cc(OC(=O)c3ccccc3)ccc2C1c1cccc(Br)c1 (stereo not drawn)	19.4 µM
CN1CCN(CCOc2cc(OC3CCOCC3)c3c(Nc4c(Cl)ccc5c4OCO5)ncnc3c2)CC1	26.1 µM
Nc1ncnc2c1c(-c1cccc(OCc3ccccc3)c1)cn2C1CC(CN2CCCC2)C1 (stereo not drawn)	13.7 µM
CN1c2ccc(-c3ccc(C#N)cc3)cc2[C@H]2[C@H](CCN2S(=O)(=O)c2cccc(F)c2)[C@H]1CO	6.56 µM
COc1ccc(C2=Nn3c(nnc3-c3ccccc3Cl)SC2)cc1OC	3.06 µM
COc1ccc(S(=O)(=O)N2CC[C@@H]3[C@@H](CO)N(C)c4ccc(-c5ccc(F)cc5)cc4[C@@H]32)cc1	7.15 µM
COc1ccc(-c2ccc3c(c2)[C@H]2[C@H](CCN2S(=O)(=O)c2ccc(OC)cc2)[C@@H](CO)N3)cc1	12.5 µM
Cc1cc(Nc2cc(N3CCN(C)CC3)nc(Sc3ccc(NC(=O)C4CC4)cc3)n2)n[nH]1	10.2 µM

SMILES	AC35
COc1cc(C2C(C#N)=C(N)Oc3cc(N(C)C)ccc32)cc2c1OCO2 (stereo not drawn)	0.0402 µM
COc1ccc(S(=O)(=O)N2CC[C@@H]3[C@@H](CO)Nc4ccc(-c5ccc(C#N)cc5)cc4[C@@H]32)cc1	9.8 µM
COc1ccc(S(=O)(=O)N2CC[C@@H]3[C@H](CO)Nc4ccc(-c5ccc(C#N)cc5)cc4[C@@H]32)cc1	10.7 µM
COc1ccc(-c2cc(NC(C)=O)c3ncc(-c4ccc(OC)c(OC)c4)n3c2)cc1	29.9 µM
CCOC(=O)CCNc1cc(N2CCc3ccccc3CC2)nc(-c2ccccn2)n1	37.2 µM
Nc1ccn([C@@H]2O[C@H](CO)[C@H](O)C2O)c(=O)n1 (stereo partly drawn)	0.686 µM
COc1ccc(C(=O)CC2(O)C(=O)Nc3c(Cl)ccc(Cl)c32)cc1 (stereo not drawn)	5.48 µM
COc1ccc(C2=Nn3c(nnc3-c3ccccc3F)SC2)cc1OC	6.11 µM
N#CC1=C(N)Oc2cc(O)ccc2C1c1cccc(Br)c1 (stereo not drawn)	11.4 µM
C=C([C@@H](O)[C@@H](C)O)[C@@H](OC)[C@]1(C)Cc2cc3cc(O[C@H]4CC(OC5CC(O)C(O)C(C)O5)C(O)C(C)O4)cc(O)c3c(O)c2C(=O)[C@H]1OC1CC(OC2CC(OC3CC(C)(O)C(O)C(C)O3)C(O)C(C)O2)C(O)C(C)O1 (stereo partly drawn)	0.111 µM
COc1ccc(OC)c(-c2nnc3n2N=C(c2ccc(OC)c(OC)c2)CS3)c1	0.192 µM and 0.123 µM
O=C(Cc1ccc(-c2ccc(OCCN3CCOCC3)cc2)cn1)NCc1ccccc1	0.0854 µM
COc1ccc(S(=O)(=O)N2CC[C@@H]3[C@@H](CO)Nc4ccc(-c5cccc(C#N)c5)cc4[C@@H]32)cc1	13.2 µM
N#CC1=C(N)Oc2cc(N)ccc2C1c1ccc2ccccc2c1 (stereo not drawn)	28.4 µM
CC[C@]1(O)CC2CN(CCc3c([nH]c4ccccc34)[C@@](C(=O)OC)(c3cc4c(cc3OC)N(C=O)[C@H]3[C@@](O)(C(=O)OC)[C@H](OC(C)=O)[C@]5(CC)C=CCN6CC[C@]43[C@@H]65)C2)C1 (stereo partly drawn)	0.285 µM
COc1ccc(-c2cc(NC=O)c3ncc(-c4ccc(OC)c(OC)c4)n3c2)cc1	1.18 µM
N#CC1=C(N)Oc2cc(N)ccc2C1c1ccccc1 (stereo not drawn)	22.9 µM
N#CC1=C(N)Oc2cc(N)ccc2C1c1ccccc1Cl (stereo not drawn)	32.9 µM
N#CC1=C(N)Oc2ccc3ccccc3c2C1c1cccc(F)c1 (stereo not drawn)	3.88 µM
COc1ccc(-c2ccc3c(c2)[C@H]2[C@H](CCN2S(=O)(=O)c2ccc(OC)cc2)[C@@H](CO)N3C)cc1	9.11 µM
Cc1cccc(C2C(C#N)=C(N)Oc3cc(N)ccc32)c1 (stereo not drawn)	3.89 µM
COc1cccc(C2C(C#N)=C(N)Oc3cc(N)ccc32)c1 (stereo not drawn)	4.76 µM
COc1ccccc1-c1nnc2n1N=C(c1ccc(O)c(O)c1)CS2	0.314 µM
Cn1cc(-c2ccncc2)c(-c2ccc(OCc3ccc4ccccc4n3)cc2)n1	19.3 µM

test system: not listed separately; experiment: as above; details: A549 viability, CellTiter-Glo ATP luminescence, 72 h; at 1.35 µM (top of the series)

SMILES	activity change, negative = cytotoxicity
COc1cc([C@@H]2c3cc4c(cc3[C@@H](O[C@@H]3O[C@@H]5CO[C@@H](C)O[C@H]5[C@H](O)[C@H]3O)[C@H]3COC(=O)[C@H]23)OCO4)cc(OC)c1O	-9.02% (inactive)

same assay, conditions: A549 viability, CellTiter-Glo ATP luminescence, 72 h; at 1.6 µM (top of the series)

SMILES	activity change, negative = cytotoxicity
CCN(CCO)CCCOc1ccc2c(Nc3cc(CC(=O)Nc4cccc(F)c4)[nH]n3)ncnc2c1	-5.27% (inactive)

same assay, conditions: A549 viability, CellTiter-Glo ATP luminescence, 72 h; at 3 µM (top of the series)

SMILES	activity change, negative = cytotoxicity
CC[C@@]1(O)C(=O)OCc2c1cc1n(c2=O)Cc2cc3c(CN(C)C)c(O)ccc3nc2-1	-28% (inactive)

same assay, conditions: A549 viability, CellTiter-Glo ATP luminescence, 72 h; at 6 µM (top of the series)

SMILES	activity change, negative = cytotoxicity
Clc1ccc(-c2cnc3ccc(-c4ccccc4)cn23)cc1	9.24% (inactive)

same assay, conditions: A549 viability, CellTiter-Glo ATP luminescence, 72 h; at 12 µM (top of the series)

SMILES	activity change, negative = cytotoxicity
COc1ccc(NC(=O)Nc2ccc3c(c2)C(=O)N([C@@H](C)CO)C[C@H](C)[C@H](CN(C)Cc2ccc4c(c2)OCO4)O3)cc1	-11.8% (inactive)

same assay, conditions: A549 viability, CellTiter-Glo ATP luminescence, 72 h; at 13.5 µM (top of the series)

SMILES	activity change, negative = cytotoxicity
CC(C)(O)CCc1ccc(O)c2c(=O)c3c(O)c4c(cc3oc12)O[C@H]1OC=C[C@@]41O	-4.12% (inactive)

same assay, conditions: A549 viability, CellTiter-Glo ATP luminescence, 72 h; at 26 µM (top of the series)

SMILES	activity change, negative = cytotoxicity
COc1cc(Nc2ncc3c(n2)-c2ccc(Cl)cc2C(c2c(F)cccc2OC)=NC3)ccc1C(=O)O	-19.8% (inactive)
CN(C(=O)CCCOc1ccc2[nH]c(=O)ccc2c1)C1CCCCC1	-2.41% (inactive)
Cc1ccc([N+](=O)[O-])cc1S(=O)(=O)N(C)C	-2.86% (inactive)
Cc1ccccc1C1C(C#N)=C(N)Oc2cc(N)ccc21 (stereo not drawn)	-2.49% (inactive)
CC1(C)CC(c2nc(-c3ccc4ccc(-c5ccccc5)nc4c3)c3c(N)nccn23)C1	-21.6% (inactive)
COc1ccc(C2C(C#N)=C(N)Oc3cc(N)ccc32)cc1 (stereo not drawn)	0.547% (inactive)
Cc1ccc(S(=O)(=O)N2CC[C@@H]3[C@@H](CO)Nc4ccc(-c5ccc(C#N)cc5)cc4[C@@H]32)cc1	-24.8% (inactive)
O=C(Nc1c(Cl)cncc1Cl)c1ccc(OC(F)F)c(OCC2CC2)c1	2.06% (inactive)
CN1c2ccc(-c3ccc(C#N)cc3)cc2[C@H]2[C@H](CCN2S(=O)(=O)c2ccc(F)cc2)[C@H]1CO	10.6% (inactive)
C[C@]1(c2nc3c(C(N)=O)cccc3[nH]2)CCCN1	8.64% (inactive)
N#CC1=C(N)Oc2cc(N)ccc2C1c1ccc(Cl)cc1 (stereo not drawn)	-4.23% (inactive)
COc1ccc(C2CNC(=O)C2)cc1OC1CCCC1 (stereo not drawn)	3.58% (inactive)
CCC(C)(C)C(=O)O[C@H]1C[C@@H](C)C=C2C=C[C@H](C)[C@H](CC[C@@H]3C[C@@H](O)CC(=O)O3)[C@H]21	2.27% (inactive)
Cc1ccc(C2C(C#N)=C(N)Oc3cc(N)ccc32)cc1 (stereo not drawn)	2.98% (inactive)
COc1ccc(S(=O)(=O)N(C(C)=O)c2ccc(OC(C)=O)c3ccccc23)cc1[N+](=O)[O-]	-4.12% (inactive)
COc1ccc(CNc2nc(N3CCC[C@H]3CO)ncc2C(=O)NCc2ncccn2)cc1Cl	-5.08% (inactive)
N#CC1=C(N)Oc2cc(N)ccc2C12C(=O)Nc1ccc(Br)cc12 (stereo not drawn)	-0.931% (inactive)
COc1ccc(C2=Nn3c(nnc3-c3ccccc3)SC2)cc1OC	-5.8% (inactive)
COc1ccccc1C1C(C#N)=C(N)Oc2cc(N)ccc21 (stereo not drawn)	3.41% (inactive)
COC(=O)c1ccc(C2C(C#N)=C(N)Oc3cc(N)ccc32)cc1 (stereo not drawn)	4.1% (inactive)

same assay, conditions: A549 viability, CellTiter-Glo ATP luminescence, 72 h; at 50 µM (top of the series)

SMILES	activity change, negative = cytotoxicity
O=P1(NCCCl)OCCCN1CCCl (stereo not drawn)	1.11% (inactive)

same assay, conditions: A549 viability, CellTiter-Glo ATP luminescence, 72 h; at 100 µM (top of the series)

SMILES	activity change, negative = cytotoxicity
CCC(C)C(=O)OC1CC(C)C=C2C=CC(C)C(CCC(O)CC(O)CC(=O)O)C21 (stereo not drawn)	-13.1% (inactive)

same assay, conditions: A549 viability, CellTiter-Glo ATP luminescence, 72 h; at 110 µM (top of the series)

SMILES	activity change, negative = cytotoxicity
O=C(c1cc(Cc2n[nH]c(=O)c3ccccc23)ccc1F)N1CCN(C(=O)C2CC2)CC1	-14.2% (inactive)
